The text below walks through data of patent US11827628B2, “Compositions and methods for inhibition of the JAK pathway” (Rigel Pharmaceuticals, Inc., priority 2005, dated 2023).

In one assay the test system is Primary human T-cells. In words: Primary Human T-Cell Proliferation Assay Stimulated with IL-2 (CellTiter-Glo). The assay is classed as cell-based. The note with it: read-out: IC50, Example 42. In a few lines: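 IC50 derived from CellTiter-Glo ATP signal after 72 hours of IL-2-driven proliferation at 37° C. Cells: primary human T-cells from blood, stimulated beforehand 3-4 days on anti-CD3/anti-CD28 with IL-2, then rested from IL-2 before compound exposure in duplicate; IL-2-free wells served as unstimulated control.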
(Cellular ATP, detected with luciferase, serves as a proxy for viable cell number.)

In assay [1] the test system is up-regulation of ICAM-1 (CD54) by IFNγ in A549 lung epithelial cells. In words: A549 Epithelial Line Stimulated with IFNγ (ICAM-1 surface expression, FACS). The assay is classed as cell-based, human. The following applies: A549 epithelial line stimulated with IFNγ; ICAM-1 expression by FACS; read-out: IC50, Example 43. An outline of the steps:
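ICAM-1 (CD54) flow cytometry on live-gated A549 cells, geometric mean versus dose giving EC50. Cells received IFNγ at 75 ng/mL for 24 h after a 1 h compound pre-treatment spanning 30 μM to 14 nM in medium with 5% FBS and 0.3% DMSO.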
For orientation: A flow cytometer gives signals particle by particle.

Where [2] appears, read: primary human T-cell proliferation stimulated with IL-2.
Setting [3] is: primary human T-cells stimulated with IL-2, proliferation.

Where a name gives a salt, the structure may show the parent alone. Read-outs that look alike come from different tables or passages of the source.

As usually defined, the IC50 is the concentration that gives 50% inhibition. Regarding `CC(Oc1ccc(Nc2nc(Nc3cccc(S(N)(=O)=O)c3)ncc2F)cc1)C(N)=O` (racemic) [Compound I-117, Racemic N4-[4-(1-Aminocarbonyl)ethoxy]phenyl-N2-(3-aminosulfonyl)phenyl-5-fluoro-2,4-pyrimidinediamine], the IC50 in the assay on Primary human T-cells (setting [2]) amounted to 0.301 µM; in assay [1], 36.4 µM.

In the case of `Cc1cc(Nc2nc(Nc3ccc(S(N)(=O)=O)cc3)ncc2F)ccc1OC(C)C(N)=O` (racemic) [Compound I-119, Racemic N4-[4-(1-Aminocarbonyl)ethoxy-3-methyl]phenyl-N2-(4-aminosulfonyl)phenyl-5-fluoro-2,4-pyrimidinediamine], the IC50 in the assay with Primary human T-cells (setting [2]) came to 2.44 µM; in assay [1], 9.67 µM.

Turning to `Cc1cc(Nc2nc(Nc3cccc(S(N)(=O)=O)c3)ncc2F)ccc1OC(C)C(N)=O` (racemic) [Compound I-120, Racemic N4-[4-(1-Aminocarbonyl)ethoxy-3-methyl]phenyl-N2-(3-aminosulfonyl)phenyl-5-fluoro-2,4-pyrimidinediamine], the IC50 in the assay with Primary human T-cells (setting [2]) came out at 0.28 µM; in assay [1] it was 20 µM.

As to `Cc1cc(Nc2nc(Nc3ccc(C)c(S(N)(=O)=O)c3)ncc2F)ccc1OC(C)C(N)=O` (racemic) [Compound I-121, Racemic N4-[4-(1-Aminocarbonyl)ethoxy-3-methyl]phenyl-N2-(3-aminosulfonyl-4-methyl)phenyl-5-fluoro-2,4-pyrimidinediamine], the 50% inhibitory concentration (IC50) with Primary human T-cells (setting [2]) was 0.634 µM; in assay [1] it was 14.5 µM.

Consider `Cc1cc(Nc2nc(Nc3cccc(S(N)(=O)=O)c3)ncc2F)cc(C)c1OC(C)C(N)=O` (racemic) [Compound I-123, Racemic N4-[4-(1-Aminocarbonyl)ethoxy-3,5-dimethyl]phenyl-N2-(3-aminosulfonyl)phenyl-5-fluoro-2,4-pyrimidinediamine], for which the IC50 in the assay with Primary human T-cells (setting [2]) was 0.225 µM; in assay [1], 12.8 µM.

Consider `Cc1ccc(Nc2ncc(F)c(Nc3cc(C)c(OC(C)C(N)=O)c(C)c3)n2)cc1S(N)(=O)=O` (racemic) [Compound I-124, Racemic N4-[4-(1-Aminocarbonyl)ethoxy-3,5-dimethyl]phenyl-N2-(3-aminosulfonyl-4-methyl)phenyl-5-fluoro-2,4-pyrimidinediamine], for which the figures for the IC50 (in the assay on Primary human T-cells (setting [2]); in assay [1]) were 0.342 µM and 10.4 µM, respectively.

On to `CN1CCN(c2ccc(Nc3ncc(F)c(Nc4ccc(OCC#N)cc4)n3)cc2S(N)(=O)=O)CC1` [Compound I-9, N2-[3-Aminosulfonyl-4-(4-methylpiperazin-1-yl)phenyl]-5-fluoro-N4-(4-cyanomethyleneoxyphenyl)-2,4-pyrimidinediamine], for which the IC50 in the assay with Primary human T-cells (setting [2]) came out at 0.485 µM; in assay [1], 15.6 µM.

Take `CN1CCN(c2ccc(Nc3ncc(F)c(Nc4ccc(OCC#N)c(F)c4)n3)cc2S(N)(=O)=O)CC1` [Compound I-10, N2-[3-Aminosulfonyl-4-(4-methylpiperazine-1-yl)phenyl]-5-fluoro-N4-(4-cyanomethyleneoxy-3-fluorophenyl)-2,4-pyrimidinediamine]: the results for the IC50 (in the assay on Primary human T-cells (setting [2]); in assay [1]) were 0.0957 µM and 6.55 µM, respectively.

Regarding `Cc1ccc(Nc2ncc(F)c(Nc3ccc(OCC#N)c(F)c3)n2)cc1S(N)(=O)=O` [Compound I-11, N2-(3-Aminosulfonyl-4-methylphenyl)-5-fluoro-N4-(4-cyanomethyleneoxy-3-fluorophenyl)-2,4-pyrimidinediamine], the concentration for half-maximal inhibition (IC50) with Primary human T-cells (setting [2]) came out at 0.0393 µM; in assay [1], 17.6 µM.

As to `N#CCOc1ccc(Nc2nc(Nc3cccc(S(N)(=O)=O)c3)ncc2F)cc1F` [Compound I-12, N2-(3-Aminosulfonylphenyl)-5-fluoro-N4-(4-cyanomethyleneoxy-3-fluorophenyl)-2,4-pyrimidinediamine], the IC50 with Primary human T-cells (setting [2]) came to 0.0597 µM; in assay [1], 3.2 µM.

In the case of `CNS(=O)(=O)c1cc(Nc2ncc(F)c(Nc3ccc(Cn4ccnc4)cc3)n2)ccc1C` [III-85, 5-Fluoro-N2-[3-(N-methylaminosulfony)-4-methylphenyl]-N4-[4-(1-imidazolylmethyl)phenyl]-2,4-pyrimidinediamine hydrochloride], the IC50 with Primary human T-cells (primary human T-cell proliferation stimulated with IL-2, hydrochloride) amounted to 0.122 µM.

With `CNS(=O)(=O)c1cc(Nc2ncc(F)c(Nc3ccc(Cn4ccnc4)cc3)n2)ccc1C` [III-86, 5-Fluoro-N2-[3-(N-methylaminosulfony)-4-methylphenyl]-N4-[4-(1-imidazolylmethyl)phenyl]-2,4-pyrimidinediamine dihydrochloride], the IC50 with Primary human T-cells (primary human T-cell proliferation stimulated with IL-2, dihydrochloride) is 0.0939 µM.

On to `N#CCn1ccc2cc(Nc3nc(Nc4ccc(Cl)c(S(N)(=O)=O)c4)ncc3F)ccc21` [IX-7, N2-(3-Aminosulfonyl-4-chlorophenyl)-N4-(1-cyanomethyleneindol-5-yl)-5-fluoro-2,4-pyrimidinediamine], for which the IC50 with Primary human T-cells (setting [3]) stood at 0.751 µM.

On to `Cc1ccc(Nc2ncc(F)c(Nc3ccc4[nH]cc(CC#N)c4c3)n2)cc1S(=O)(=O)NC1CCN(C)CC1` [IX-19, N4-(3-cyanomethylene-1H-indol-5yl)-5-fluoro-N2-[3-(1-methyl-4-aminopiperadine)sulfonyl-4-methylphenyl]-2,4-pyrimidinediamine], for which the IC50 in the assay with Primary human T-cells (setting [3]) was 1.6 µM.

As for `Cc1ccc(Nc2ncc(F)c(Nc3ccc4c(c3)c(CC#N)cn4C)n2)cc1S(N)(=O)=O` [IX-20], in the assay with Primary human T-cells (setting [3]), the IC50 is 1.79 µM.

Consider `NS(=O)(=O)c1cccc(Nc2ncc(F)c(Nc3ccc(OCC(F)(F)F)cc3)n2)c1` [VI-47, N2-(3-Aminosulfonylphenyl)-5-fluoro-N4-(4-trifluoromethylmethyleneoxyphenyl)-2,4-pyrimidinediamine], for which the IC50 in the assay with Primary human T-cells (setting [3]) came to 0.259 µM.

Regarding `COCCOc1ccc(Nc2nc(Nc3ccc(Cl)c(S(N)(=O)=O)c3)ncc2F)cc1` [VI-111, N2-(3-Aminosulfonyl-4-chlorophenyl)-5-fluoro-N4-[4-(2-methoxyethyleneoxy)phenyl]-2,4-pyrimdinediamine], in the assay with Primary human T-cells (setting [3]), the IC50 is 1.09 µM.

Regarding `COCCOc1ccc(Nc2nc(Nc3ccc(C)c(S(N)(=O)=O)c3)ncc2F)cc1` [VI-112, N2-(3-Aminosulfonyl-4-methylphenyl)-5-fluoro-N4-[4-(2-methoxyethyleneoxy)phenyl]-2,4-pyrimdinediamine], in the assay on Primary human T-cells (setting [3]), the IC50 was 0.77 µM.

In the case of `CCS(=O)(=O)N1CCc2cc(Nc3nc(Nc4ccc(S(N)(=O)=O)cc4)ncc3F)ccc2C1` [VII-13, N2-(4-aminosulfonyl)phenyl-N4-[(N-ethylsulfonyl)-1,2,3,4-tetrahydroisoquinolin-6-yl]-5-fluoro-2,4-pyrimidinediamine], the IC50 in the assay on Primary human T-cells (setting [3]) is 0.38 µM.

Turning to `Cc1ccc(Nc2ncc(F)c(Nc3ccc4c(c3)CNCC4)n2)cc1S(N)(=O)=O` [VII-16, N2-(3-Aminosulfonyl-4-methylphenyl)-5-fluoro-N4-(1,2,3,4-tetrahydroisoquin-7-yl)-2,4-pyrimidinediamine], in the assay on Primary human T-cells (setting [3]), the IC50 came to 1.07 µM.

`CNC(=O)N1CCc2ccc(Nc3nc(Nc4ccc(C)c(S(N)(=O)=O)c4)ncc3F)cc2C1` [VII-17, N2-(3-Aminosulfonyl-4-methylphenyl)-5-fluoro-N4-[2-(methylaminocarbonyl)-1,2,3,4-tetrahydroisoquin-7-yl]-2,4-pyrimidinediamine]: the IC50 in the assay on Primary human T-cells (setting [3]) was found to be 2.1 µM.

Regarding `Cc1ccc(Nc2ncc(F)c(Nc3ccc4c(c3)CN(C(=O)N(C)C)CC4)n2)cc1S(N)(=O)=O` [VII-18, N2-(3-Aminosulfonyl-4-methylphenyl)-5-fluoro-N4-[2-(dimethylaminocarbonyl)-1,2,3,4-tetrahydroisoquin-7-yl]-2,4-pyrimidinediamine], in the assay on Primary human T-cells (setting [3]), the IC50 turned out to be 0.839 µM.

As to `COCCCn1ncc2cc(Nc3nc(Nc4cccc(S(N)(=O)=O)c4)ncc3F)ccc21` [VII-22, N2-(3-Aminosulfonylphenyl)-5-fluoro-N4-[1-(3-methoxypropyl)indazolin-5-yl]-2,4-pyrimidinediamine], the IC50 with Primary human T-cells (setting [3]) was determined as 0.128 µM.

In the case of `CN1C(=O)C(C)(C)Oc2cc(Nc3nc(Nc4cccc(S(N)(=O)=O)c4)ncc3F)cnc21` [VII-42, N2-(3-Aminosulfonylphenyl)-N4-[2,2,4-trimethyl-3-oxo-5-pyrid[1,4]oxazin-7-yl]-5-fluoro-2,4-pyrimidinediamine], the IC50 in the assay on Primary human T-cells (setting [3]) stood at 7.28 µM.

Take `CNS(=O)(=O)c1cc(Nc2ncc(F)c(Nc3ccc4c(c3)CCN4S(C)(=O)=O)n2)ccc1C` [VII-62, 5-Fluoro-N2-[3-(N-methylaminosulfony)-4-methylphenyl]-N4-[4-(1-methylsulfonyl)indolin-5-yl]-2,4-pyrimidinediamine]: in the assay with Primary human T-cells (setting [3]), the IC50 was determined as 0.144 µM.

For `CS(=O)(=O)N1CCc2cc(Nc3nc(Nc4ccc(S(N)(=O)=O)cc4)ncc3F)ccc21` [VII-63], the IC50 in the assay on Primary human T-cells (setting [3]) turned out to be 0.301 µM.

Consider `COc1ccc(Nc2nc(Nc3cc(C)c4c(c3)S(=O)(=O)NC=N4)ncc2F)cc1Cl` [VIII-3, N4-(3-Chloro-4-methoxyphenyl)-5-fluoro-N2-(5-methyl-2H-1,1-dioxo-1,2,4-benzothiadiazin-7-yl)-2,4-pyrimidinediamine], for which the IC50 with Primary human T-cells (setting [3]) came out at 1.84 µM.

For the compound “N2-(3-Aminosulphonylphenyl)-5-fluoro-N4-[4-(3-pyridinylmethyl)benzo[1,4]oxazin-7-yl]-2,4-pyrimidinediamine [VII-55]”, in the assay with Primary human T-cells (setting [3]), the IC50 was determined as 0.599 µM.

Consider “N2-(3-Aminosulphonylphenyl)-5-fluoro-N4-[4-(3-pyridinylmethyl)benzo[1,4]oxazin-7-yl]-2,4-pyrimidinediamine [VII-56]”, for which, in the assay with Primary human T-cells (setting [3]), the IC50 worked out at 1.28 µM.

In the case of “N4-(3-Chloro-4-cyanomethyleneoxyphenyl)-5-fluoro-N2-(5-methyl-2H-1,1-dioxide-1,2,4-benzothiadiazin-7-yl)-2,4-pyrimidinediamine [VIII-2]”, the concentration for half-maximal inhibition (IC50) with Primary human T-cells (setting [3]) is 0.409 µM.
